Consider eight compounds from ChEMBL document CHEMBL3351444, “Poliothrysoside and its derivatives as novel insulin sensitizers potentially driving AMPK activation and inhibiting adipogenesis” (Eur J Med Chem, 2014).

Calls of active or inactive are those of the source. No cut-off for these calls is given here.

Data set [1] concerns 3T3-L1. Briefly: Induction of [3H] 2-deoxyglucose uptake in chronic insulin resistant mouse 3T3L1 cells assessed as maximum uptake at 10 uM by liquid scintillation counting. The data set is classed as functional.
The test system of data set [2] is 3T3-L1. Briefly: Induction of [3H] 2-deoxyglucose uptake in chronic insulin resistant mouse 3T3L1 cells assessed as maximum uptake by liquid scintillation counting. Type of data set: functional, cell-based.
In data set [3] the test system is 3T3-L1. The data set can be described thus: Induction of AMPK phosphorylation in mouse 3T3L1 cells at 10 uM by Western blot analysis. The data set is classed as cell-based. A general note: In western blotting, separated proteins are transferred to a membrane and probed.
Data set [4] deals with 3T3-L1. The data set can be described thus: Induction of AKT phosphorylation in mouse 3T3L1 cells at 10 uM by Western blot analysis. The data set is classed as cell-based.
Data set [5] concerns 3T3-L1. Briefly: Induction of [3H] 2-deoxyglucose uptake in chronic insulin resistant mouse 3T3L1 cells at 10 uM after 24 hrs by liquid scintillation counting in presence of AMPK inhibitor compound C. The data set is classed as functional, cell-based.
Data set [6] has as its system 3T3-L1. The data set can be described thus: Inhibition of adipogenesis in mouse 3T3L1 cells assessed as reduction in lipid droplet formation at 20 uM by using Oil-Red O by microscopy. Type of data set: functional.
Data set [7] relates to 3T3-L1. The data set can be described thus: Inhibition of adipogenesis in mouse 3T3L1 cells assessed as reduction in lipid droplet formation at 50 uM by using Oil-Red O by microscopy. Type of data set: functional.
Data set [8] deals with 3T3-L1. Briefly: Inhibition of adipogenesis in mouse 3T3L1 cells assessed as reduction in lipid droplet formation at 10 uM by using Oil-Red O by microscopy. Type of data set: functional, cell-based.
Data set [9] can be described thus: Toxicity in mouse 3T3L1 cells. The data set is classed as cell-based. Particulars: 3t3-l1.
Data set [10] deals with 3T3-L1. The data set can be described thus: Inhibition of adipogenesis in mouse 3T3L1 cells assessed as reduction in lipid droplet formation by using Oil-Red O by microscopy. Type of data set: functional, cell-based.
Data set [11] deals with 3T3-L1. Briefly: Induction of AMPK phosphorylation in mouse 3T3L1 cells at 1 mM by Western blot analysis. Type of data set: cell-based.

Regarding `CC(=O)OCc1cc(OC(C)=O)ccc1O[C@@H]1O[C@H](COC(=O)c2ccccc2)[C@@H](OC(C)=O)[C@H](OC(C)=O)[C@H]1OC(C)=O`, the Activity in the data set on 3T3-L1 [1] is 17.35 pmol/mg/min; in the data set with 3T3-L1 [2], “Dose-dependent effect”; in [9] it was “Non-toxic”. The outcome in the data set with 3T3-L1 [3] was Active. The result in the data set with 3T3-L1 [4] and with 3T3-L1 [5] was inactive. Further, in the data set on 3T3-L1 [6], the inhibition at 20 µM is 20%. In the data set on 3T3-L1 [7], the inhibition at 50 µM was 64%. Besides, the inhibition result in the data set with 3T3-L1 [8] was “inactive”. Moreover, the inhibition entry in the data set with 3T3-L1 [10] was “Dose-dependent effect”.
Turning to `CN(C)C(=N)NC(=N)N`, the outcome in the data set with 3T3-L1 [11] was Active.
Turning to `O=C(OC[C@H]1O[C@@H](Oc2ccc(OCc3ccccc3)cc2CO)[C@H](O)[C@@H](O)[C@@H]1O)c1ccccc1`, the outcome in the data set on 3T3-L1 [1] was Active.
In the case of `O=C(OC[C@H]1O[C@@H](Oc2ccc(OCc3ccc([N+](=O)[O-])cc3)cc2CO)[C@H](O)[C@@H](O)[C@@H]1O)c1ccccc1`, the outcome in the data set on 3T3-L1 [1] was Active.
As for `O=C(COc1ccc(O[C@@H]2O[C@H](COC(=O)c3ccccc3)[C@@H](O)[C@H](O)[C@H]2O)c(CO)c1)c1ccc(Cl)cc1`, the outcome with 3T3-L1 [1] was Active.
Turning to `O=C(OC[C@H]1O[C@@H](Oc2ccc(O)cc2CO)[C@H](O)[C@@H](O)[C@@H]1O)c1ccccc1`, the result with 3T3-L1 [1] was Active.
For the compound `CCOc1ccc(O[C@@H]2O[C@H](COC(=O)c3ccccc3)[C@@H](O)[C@H](O)[C@H]2O)c(CO)c1`, in the data set on 3T3-L1 [1], the result was Active.
With `O=C(COc1ccc(O[C@@H]2O[C@H](COC(=O)c3ccccc3)[C@@H](O)[C@H](O)[C@H]2O)c(CO)c1)c1ccccc1`, the result with 3T3-L1 [1] was Active.

As usually defined, the inhibition is how much of the control response was suppressed.
